The values that follow come from article PMC6928688, “Identification of Novel PI3Kδ Selective Inhibitors by SVM-Based Multistage Virtual Screening and Molecular Dynamics Simulations” (International Journal of Molecular Sciences, 2019).

Each structure is given as a SMILES string. Entries after “also recorded” stand apart in the source; their conditions may differ. Read-outs that look alike come from different tables or passages of the source.

Holding throughout (assay type): biochemical
For test [1], the target named is T1, recombinant PI3Kδ kinase (Homo sapiens, UniProt O00329). The test is described as follows: Cell free PI3Kδ kinase activity, ADP-Glo chemiluminescence assay. The text has this: The chemiluminescence method was used to determine the inhibitory effect of the 15 hit compounds on PI3Kδ (Table 5). […] For 14317, the reason for its high activity was probably the long side chain on its guanine, which was the same as the reported PI3Kδ selective inhibitor Compound 1 (idelalisib) and Compound 7 (GNE-293). For Compounds 9 and 10, the reason the pyridazinone skeleton made them so active requires further study. Finally, the two compounds with the novel skeleton were selected for the subsequent molecular dynamics (MD) simulations. […]
T1 sequence (O00329 whole entry): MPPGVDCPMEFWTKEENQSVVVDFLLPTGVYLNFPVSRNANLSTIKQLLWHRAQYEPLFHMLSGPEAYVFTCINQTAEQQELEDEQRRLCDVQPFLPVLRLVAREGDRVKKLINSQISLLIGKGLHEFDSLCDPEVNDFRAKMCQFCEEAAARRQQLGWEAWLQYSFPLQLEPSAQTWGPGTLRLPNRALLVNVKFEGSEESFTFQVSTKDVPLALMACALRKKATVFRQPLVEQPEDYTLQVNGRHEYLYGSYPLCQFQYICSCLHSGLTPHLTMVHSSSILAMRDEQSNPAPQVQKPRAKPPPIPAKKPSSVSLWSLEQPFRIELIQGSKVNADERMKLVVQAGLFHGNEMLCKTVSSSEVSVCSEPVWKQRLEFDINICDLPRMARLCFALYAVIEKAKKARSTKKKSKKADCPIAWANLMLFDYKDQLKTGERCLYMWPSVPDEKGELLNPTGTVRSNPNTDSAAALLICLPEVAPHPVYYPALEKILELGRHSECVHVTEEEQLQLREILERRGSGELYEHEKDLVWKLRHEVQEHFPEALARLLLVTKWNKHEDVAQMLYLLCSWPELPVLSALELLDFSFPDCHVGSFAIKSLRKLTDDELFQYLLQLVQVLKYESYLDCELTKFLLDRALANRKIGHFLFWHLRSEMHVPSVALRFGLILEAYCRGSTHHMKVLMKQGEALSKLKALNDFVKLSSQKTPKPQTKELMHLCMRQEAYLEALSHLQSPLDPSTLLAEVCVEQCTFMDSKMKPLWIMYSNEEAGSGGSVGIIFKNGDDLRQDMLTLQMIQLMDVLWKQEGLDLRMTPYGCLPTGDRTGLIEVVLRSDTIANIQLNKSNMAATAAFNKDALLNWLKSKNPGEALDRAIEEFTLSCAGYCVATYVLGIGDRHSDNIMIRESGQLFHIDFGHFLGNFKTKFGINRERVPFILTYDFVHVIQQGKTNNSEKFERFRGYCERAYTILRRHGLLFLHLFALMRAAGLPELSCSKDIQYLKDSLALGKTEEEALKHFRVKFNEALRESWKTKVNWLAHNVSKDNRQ
T1 sequence (P27986 whole entry partner): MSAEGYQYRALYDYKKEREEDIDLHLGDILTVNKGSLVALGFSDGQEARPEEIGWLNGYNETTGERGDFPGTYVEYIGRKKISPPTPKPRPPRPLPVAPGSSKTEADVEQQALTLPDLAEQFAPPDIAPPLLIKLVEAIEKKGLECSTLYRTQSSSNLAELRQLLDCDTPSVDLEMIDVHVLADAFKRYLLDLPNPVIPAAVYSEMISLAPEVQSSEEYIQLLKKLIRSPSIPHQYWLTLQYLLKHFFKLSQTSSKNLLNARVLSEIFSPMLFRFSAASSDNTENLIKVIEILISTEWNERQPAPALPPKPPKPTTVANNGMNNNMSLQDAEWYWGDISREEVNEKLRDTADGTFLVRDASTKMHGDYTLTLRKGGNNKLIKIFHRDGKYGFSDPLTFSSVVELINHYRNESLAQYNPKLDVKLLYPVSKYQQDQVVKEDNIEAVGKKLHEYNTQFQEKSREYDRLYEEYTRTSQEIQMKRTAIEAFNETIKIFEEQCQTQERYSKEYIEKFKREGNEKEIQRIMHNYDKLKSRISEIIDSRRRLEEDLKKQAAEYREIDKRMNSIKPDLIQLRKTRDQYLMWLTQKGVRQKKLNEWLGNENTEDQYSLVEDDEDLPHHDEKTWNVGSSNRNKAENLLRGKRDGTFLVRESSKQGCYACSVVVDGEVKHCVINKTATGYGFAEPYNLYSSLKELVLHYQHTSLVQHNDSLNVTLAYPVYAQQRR
The inhibitory activities of inhibitors against PI3Kδ were determined by the ADP-Glo assay. The recombinant PI3Kδ kinase was diluted to 2.2 μg/mL using reaction buffer (50 mM HEPES, pH 7.5, 10 mM MgCl2, 0.1 mg/mL BSA, 2 mM DTT, 1% DMSO), and ATP was diluted with reaction buffer (10 mM) to 250 μM, and the test compound and positive drug (idelalisib) were formulated into four concentration-gradient solutions (6 × 10^−2 M, 6 × 10^−4 M, 6 × 10^−6 M, 6 × 10^−8 M). The reaction was started by sequentially adding 2 μL of an ATP solution, 1 μL of a drug solution, and 2 μL of an enzyme solution in 96 wells. The assay was conducted for 1 h at 37 °C before the addition of 5 μL ADP-Glo reagent and incubation for 40 min at room temperature. A 10 μL amount of kinase detection reagent (Promega, Beijing, China) was added and incubated for 30 min at room temperature before the luminescence value was measured using a chemiluminescence module of a full-wavelength multi-function microplate reader (PerkinElmer, Singapore).
On the technique in general: ADP-Glo first removes unused ATP, then detects ADP through luciferase.

Test [2] concerns the target PI3Kα (Homo sapiens, UniProt P42336). Put plainly: PI3K isoform selectivity, chemiluminescence kinase assay (α). The note with it: isoform selectivity experiment.
Test [3] has as its target PI3Kβ (Homo sapiens, UniProt P42338). The test is described as follows: PI3K isoform selectivity, chemiluminescence kinase assay (β). The settings on record: isoform selectivity experiment.
Test [4] deals with PI3Kγ (Homo sapiens, UniProt P48736). Put plainly: PI3K isoform selectivity, chemiluminescence kinase assay (γ). The note with it: isoform selectivity experiment.
PI3Kγ, sequence (P48736 whole entry, canonical isoform): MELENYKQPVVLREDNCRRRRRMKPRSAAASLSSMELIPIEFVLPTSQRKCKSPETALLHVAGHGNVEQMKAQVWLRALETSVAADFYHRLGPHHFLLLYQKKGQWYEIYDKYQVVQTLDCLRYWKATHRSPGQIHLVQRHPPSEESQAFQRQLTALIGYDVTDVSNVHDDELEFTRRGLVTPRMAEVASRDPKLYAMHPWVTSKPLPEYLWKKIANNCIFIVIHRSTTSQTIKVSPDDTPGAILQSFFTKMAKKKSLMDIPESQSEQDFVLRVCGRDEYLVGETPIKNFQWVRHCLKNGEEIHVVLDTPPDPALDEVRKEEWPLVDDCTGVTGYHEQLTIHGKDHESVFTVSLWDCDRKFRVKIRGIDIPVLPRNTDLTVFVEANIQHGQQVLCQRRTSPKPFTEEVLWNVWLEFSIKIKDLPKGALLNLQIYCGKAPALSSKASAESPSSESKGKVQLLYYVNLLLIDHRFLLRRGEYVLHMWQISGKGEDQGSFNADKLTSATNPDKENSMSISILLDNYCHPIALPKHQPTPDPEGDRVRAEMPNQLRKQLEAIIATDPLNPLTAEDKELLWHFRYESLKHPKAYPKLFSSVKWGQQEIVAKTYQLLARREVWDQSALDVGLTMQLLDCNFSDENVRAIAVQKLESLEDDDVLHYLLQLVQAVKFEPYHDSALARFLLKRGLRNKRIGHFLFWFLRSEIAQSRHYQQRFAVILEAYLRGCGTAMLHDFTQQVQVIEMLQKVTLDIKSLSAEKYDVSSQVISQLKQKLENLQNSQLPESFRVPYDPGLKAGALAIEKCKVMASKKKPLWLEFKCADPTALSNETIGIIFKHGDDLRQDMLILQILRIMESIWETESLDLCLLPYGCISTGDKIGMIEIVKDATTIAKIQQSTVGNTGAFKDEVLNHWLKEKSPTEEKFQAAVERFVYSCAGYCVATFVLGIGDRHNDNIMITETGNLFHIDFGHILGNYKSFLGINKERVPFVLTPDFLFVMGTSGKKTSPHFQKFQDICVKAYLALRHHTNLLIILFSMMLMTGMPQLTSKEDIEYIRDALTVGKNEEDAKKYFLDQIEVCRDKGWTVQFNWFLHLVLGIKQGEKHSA
Test [5] concerns the target T1, recombinant PI3Kδ kinase. Put plainly: Cell free PI3Kδ kinase activity, ADP-Glo chemiluminescence assay. The settings on record: PI3Kδ versus α, β, γ.
[6] abbreviates: 15 hit compounds from NCI database, chemiluminescence method, read-out: PI3Kδ IC50.

PI3Kβ, sequence (P42338 whole entry, canonical isoform): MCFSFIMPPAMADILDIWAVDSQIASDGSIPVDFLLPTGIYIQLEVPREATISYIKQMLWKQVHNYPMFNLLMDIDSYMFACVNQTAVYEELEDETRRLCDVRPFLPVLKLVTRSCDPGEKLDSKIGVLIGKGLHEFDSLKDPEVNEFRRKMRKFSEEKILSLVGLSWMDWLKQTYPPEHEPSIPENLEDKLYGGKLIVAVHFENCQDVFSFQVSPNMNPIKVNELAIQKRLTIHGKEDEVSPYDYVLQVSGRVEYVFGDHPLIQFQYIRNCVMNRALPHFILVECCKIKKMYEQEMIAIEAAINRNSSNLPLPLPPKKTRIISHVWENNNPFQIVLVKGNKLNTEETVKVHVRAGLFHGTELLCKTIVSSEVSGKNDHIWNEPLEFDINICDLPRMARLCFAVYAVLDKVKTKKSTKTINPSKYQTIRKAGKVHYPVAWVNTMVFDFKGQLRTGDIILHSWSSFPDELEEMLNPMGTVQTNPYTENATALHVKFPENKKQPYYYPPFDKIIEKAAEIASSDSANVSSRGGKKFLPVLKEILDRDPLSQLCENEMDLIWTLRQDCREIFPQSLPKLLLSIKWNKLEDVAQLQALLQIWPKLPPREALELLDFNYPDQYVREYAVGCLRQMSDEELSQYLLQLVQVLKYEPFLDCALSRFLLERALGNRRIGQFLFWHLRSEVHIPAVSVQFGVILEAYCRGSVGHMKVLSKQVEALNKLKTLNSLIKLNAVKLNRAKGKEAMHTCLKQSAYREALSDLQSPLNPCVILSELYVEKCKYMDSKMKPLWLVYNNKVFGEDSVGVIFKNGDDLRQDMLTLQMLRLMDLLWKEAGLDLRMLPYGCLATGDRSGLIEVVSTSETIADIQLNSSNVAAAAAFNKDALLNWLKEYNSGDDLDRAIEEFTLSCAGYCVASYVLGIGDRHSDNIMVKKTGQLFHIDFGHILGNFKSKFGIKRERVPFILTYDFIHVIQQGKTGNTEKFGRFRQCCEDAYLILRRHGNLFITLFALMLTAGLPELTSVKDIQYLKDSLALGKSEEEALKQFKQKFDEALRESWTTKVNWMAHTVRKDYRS
PI3Kβ, sequence (P27986 whole entry partner, canonical isoform): as the sequence (P27986 whole entry partner) above
PI3Kα, sequence (P42336 whole entry, species assumed, canonical isoform): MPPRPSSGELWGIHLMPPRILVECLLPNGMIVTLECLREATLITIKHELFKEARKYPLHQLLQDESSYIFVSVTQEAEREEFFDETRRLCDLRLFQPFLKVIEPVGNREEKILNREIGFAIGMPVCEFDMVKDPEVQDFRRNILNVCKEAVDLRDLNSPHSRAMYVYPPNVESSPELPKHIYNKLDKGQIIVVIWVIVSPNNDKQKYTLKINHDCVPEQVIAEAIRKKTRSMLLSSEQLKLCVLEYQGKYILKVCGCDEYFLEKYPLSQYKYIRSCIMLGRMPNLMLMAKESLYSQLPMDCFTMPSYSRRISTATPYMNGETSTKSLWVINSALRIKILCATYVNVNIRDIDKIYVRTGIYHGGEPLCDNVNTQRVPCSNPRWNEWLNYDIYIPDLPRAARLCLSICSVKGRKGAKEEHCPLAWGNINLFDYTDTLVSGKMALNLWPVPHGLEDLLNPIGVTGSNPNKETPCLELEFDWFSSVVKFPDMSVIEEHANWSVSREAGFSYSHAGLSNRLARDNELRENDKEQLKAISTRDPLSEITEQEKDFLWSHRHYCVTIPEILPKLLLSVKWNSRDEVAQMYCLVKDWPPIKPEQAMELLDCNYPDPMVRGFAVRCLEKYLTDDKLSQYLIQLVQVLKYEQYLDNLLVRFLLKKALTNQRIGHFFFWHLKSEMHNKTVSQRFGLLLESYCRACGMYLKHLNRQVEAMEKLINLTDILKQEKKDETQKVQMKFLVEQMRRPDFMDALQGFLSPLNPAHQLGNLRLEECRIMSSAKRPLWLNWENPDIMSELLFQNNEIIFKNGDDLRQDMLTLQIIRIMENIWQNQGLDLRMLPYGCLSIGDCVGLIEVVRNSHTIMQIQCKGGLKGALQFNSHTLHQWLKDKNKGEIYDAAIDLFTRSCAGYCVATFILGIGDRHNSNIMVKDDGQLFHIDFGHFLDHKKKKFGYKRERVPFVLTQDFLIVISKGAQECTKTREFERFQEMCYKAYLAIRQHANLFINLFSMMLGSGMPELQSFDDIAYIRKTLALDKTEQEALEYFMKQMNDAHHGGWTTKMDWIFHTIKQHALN
PI3Kα, sequence (P27986 whole entry partner, species assumed, canonical isoform): as the sequence (P27986 whole entry partner) above

For orientation: IC50 means the midpoint of a concentration-inhibition curve. For the compound `CC/C(=N\Nc1cn[nH]c(=O)c1Br)c1ccccc1` [Compound 9], the concentration for half-maximal inhibition (IC50) in test [1] (setting [6]) was found to be 72.2 µM.

Take `C/C(=N\Nc1cn[nH]c(=O)c1Br)c1ccccc1` [Compound 10]: the IC50 in test [1] (setting [6]) turned out to be 18.9 µM; in test [2], 75 µM; in test [3], 188 µM; in test [4], 226 µM. In test [5], the PI3K isoform selectivity entry was “significant selectivity; also recorded: high isoform selectivity”.

As to `CCN(CC)CCOc1nc2c(c(=O)n(C)c(=O)n2C)n1C` [Compound 14317], in test [1] (setting [6]), the IC50 came out at 28.1 µM.

As for `CCOC(=O)c1cc(Sc2ccccc2)nc2ccccc12` [Compound 25679], the 50% inhibitory concentration (IC50) in test [1] (setting [6]) was found to be 289 µM.

In the case of `COc1c2c(c3c(c1OC)c(=O)c1ccccc1n3C)OCO2` [Compound 34758], the concentration for half-maximal inhibition (IC50) in test [1] (setting [6]) turned out to be 481 µM.

Consider `CCOC(=O)Nc1ccc2c(c1Cl)C(=O)c1ccccc1C2=O` [Compound 39951], for which the IC50 in test [1] (setting [6]) was found to be 522 µM.

In the case of `CC(=O)Nc1cc2c(cc1Cl)-c1ccc(Cl)cc1C2=O` [Compound 57442], in test [1] (setting [6]), the IC50 came to 500 µM.

With `CC(=O)Nc1cc2c(cc1Br)-c1ccc(F)cc1C2=O` [Compound 73075], the concentration for half-maximal inhibition (IC50) in test [1] (setting [6]) is 248 µM.

As to `O=C1c2ccccc2-c2cc(Br)c(NC(=O)C(F)(F)F)cc21` [Compound 80144], the IC50 in test [1] (setting [6]) was determined as 809 µM.

For the compound `COc1cc(OC)c(OC)cc1/C=C/c1ccnc2ccccc12` [Compound 80756], the IC50 in test [1] (setting [6]) came to 192 µM.

As for `CSc1cc2c(cc1NC(C)=O)C(=O)c1cc(F)ccc1-2` [Compound 109638], the half-inhibitory concentration (IC50) in test [1] (setting [6]) amounted to 169 µM.

For the compound `O=c1cc(N2CCOCC2)oc2c(-c3ccccc3)cccc12` [LY294002, reference compound], in test [1] (read-out: PI3K IC50 δ), the IC50 amounted to 3.49 µM.
